Values quoted from earlier work in US20070016968A1, “Treatment of pain through expression of opioid receptors” (priority 2003, published 2007).

Tests used:
mice of the CXBX strain = settings: CXBX strain mice (Rossi et al 1996)
[1] = test system: MOR-1 knockout mice (exon-1); settings: disruption in exon-1 (Schuller et al 1999)
mice = settings: antinociception tests on mice
μ1-site = settings: Ling et al 1984, 1985
μ-receptor = settings: in vivo studies (Ling et al)
cloned DOR-1 receptor = cloned DOR-1 receptor (Mus musculus, UniProt P32300); settings: mouse recombinant receptor
Chain of cloned DOR-1 receptor (P32300 whole entry): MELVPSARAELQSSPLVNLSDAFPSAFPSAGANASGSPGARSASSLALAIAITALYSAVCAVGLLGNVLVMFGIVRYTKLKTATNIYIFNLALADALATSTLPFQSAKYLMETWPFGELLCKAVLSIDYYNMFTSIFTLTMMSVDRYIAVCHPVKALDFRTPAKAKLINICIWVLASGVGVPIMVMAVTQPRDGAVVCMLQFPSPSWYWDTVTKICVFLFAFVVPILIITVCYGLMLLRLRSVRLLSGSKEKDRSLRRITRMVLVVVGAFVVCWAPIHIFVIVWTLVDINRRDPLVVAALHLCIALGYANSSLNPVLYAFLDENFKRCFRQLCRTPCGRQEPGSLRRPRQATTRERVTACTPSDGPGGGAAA

SMILES: CC(=O)O[C@H]1C=C[C@H]2[C@H]3Cc4ccc(O)c5c4[C@@]2(CCN3C)[C@H]1O5 [6-acetyl morphine]
- antinociceptive activity (mice of the CXBX strain): potently antinociceptive

SMILES: CC(=O)Oc1ccc2c3c1O[C@H]1[C@@H](OC(C)=O)C=C[C@H]4[C@@H](C2)N(C)CC[C@@]341 [heroin]
- antinociceptive activity (mice of the CXBX strain): potently antinociceptive
- antinociception [1]: still produce antinociception

SMILES: CN1CC[C@]23c4c5ccc(O)c4O[C@H]2[C@@H](O[C@@H]2O[C@H](C(=O)O)[C@@H](O)[C@H](O)[C@H]2O)C=C[C@H]3[C@H]1C5 [morphine-6b-glucuronide]
- antinociceptive activity (mice of the CXBX strain): potently antinociceptive

SMILES: CN1CC[C@]23c4c5ccc(O)c4O[C@H]2[C@@H](O)C=C[C@H]3[C@H]1C5 [morphine]
- cross tolerance with morphine-6b-glucuronide, heroin or 6-acetyl morphine (mice): does not exhibit cross tolerance
- antinociceptive activity (mice of the CXBX strain): poor antinociceptive agent

SMILES: C=CCN1CC[C@]23c4c5ccc(O)c4O[C@H]2/C(=N\N)CC[C@@]3(O)[C@H]1C5 [naloxazone]
- effect on binding of radioligands to the μ1-site (μ1-site): abolish the binding of radioligands
- block of morphine-induced antinociception (μ-receptor): selectively blocked
- block of morphine-induced respiratory depression (μ-receptor): did not block
- block of the induction of morphine dependence (μ-receptor): did not block

SMILES: C=CCN1CC[C@]23c4c5ccc(O)c4O[C@H]2/C(=N/N=C2\CC[C@@]4(O)[C@H]6Cc7ccc(O)c8c7[C@@]4(CCN6CC=C)[C@H]2O8)CC[C@@]3(O)[C@H]1C5 [naloxonazine]
- effect on binding of radioligands to the μ1-site (μ1-site): abolish the binding of radioligands

SMILES: Oc1ccc2c3c1O[C@H]1c4oc5ccccc5c4C[C@@]4(O)[C@@H](C2)N(CC2CC2)CC[C@]314 [naltriben]
- displacement of [3H]-diprenorphine binding, compared with BNTX (cloned DOR-1 receptor): more highly displaced
